Source: patent publication US20240207302A1, “ANTIVIRAL COMPOUNDS, METHODS FOR THE MANUFACTURING OF COMPOUNDS, ANTIVIRAL PHARMACEUTICAL COMPOSITION, USE OF THE COMPOUNDS AND METHOD FOR THE ORAL TREATMENT OF CORONAVIRUS INFECTION AND RELATED DISEASES THEREOF” (priority 2021, published 2024)
Read-outs that look alike come from different tables or passages of the source.

Tests used:
[1] = Pharmacokinetics of MB-905 in plasma of the rat; type: in vivo
Method: The pharmacokinetic assay was performed by using mice of the CDI strain (20-30 g) or rat Sprague Dawley (250-300 g) of both sexes from the Center of Innovation and Preclinical Studies (CIEnP) vivarium. […] After oral […] administration, blood was collected at times of 0.25, 0.5, 1, 2, 4, 8 and 24, while after intravenous administration the collection times were 0.083, 0.25, 0.5, 1, 2 and 4 hours. […] The pharmacokinetic parameters evaluated were: AUC (AUC 0-T or, AUC 0-∞), Cmax, Tmax, T1/2, volume of distribution, clearance, elimination constant and bioavailability.

[2] = system: Salmonella typhimirium TA 97a, TA 98, TA 100, TA 102 and TA 1535; assay: Bacterial reverse mutation (Ames) test
[3] = both sexes, Sprague Dawley, rat, plasma, po, 10 mg/kg, 10 mg/kg (v.o.)
[4] = both sexes, Sprague Dawley, rat, plasma, po, 30 mg/kg, 30 mg/kg (v.o.)

c1coc(CNc2ncnc3[nH]cnc23)c1 [MB-905, kinetin]
0.25 h: Tmax [1, 3]
30.37 L/kg: Vz ([1]; 10 mg/kg (v.o.))
1.46 h: half-life [1, 3]
666 ng·h/mL: AUC(0-t) [1, 3]
762 ng·h/mL: AUC [1, 3]
99.4 ng/mL: Cmax ([1]; both sexes, Sprague Dawley, rat, plasma, iv, 3 mg/kg, 3 mg/kg (i.v.), read-out: Cmax)
0.47 h⁻¹: Ke ([1]; 10 mg/kg (v.o.))
no mutagenic activity: mutagenic activity in the reverse mutation test ([2]; all strains, absence and presence of S9)
241.09 mL/min/kg: CL ([1]; 10 mg/kg (v.o.))
123.61 ng/mL: Cmax ([1]; 3 mg/kg (i.v.), 3 mg/kg)
98.8%: F ([1]; 10 mg/kg (v.o.), 10 mg/kg)
549.96 ng/mL: Cmax ([1]; 10 mg/kg (v.o.), 10 mg/kg)
330.57 mL/min/kg: CL ([1]; 30 mg/kg (v.o.), 30 mg/kg)
64.7%: F ([1]; 30 mg/kg (v.o.))
1500 ng·h/mL: AUC [1, 4] | AUC(0-t) [1, 4]
0.18 h⁻¹: Ke ([1]; 30 mg/kg (v.o.))
109.18 L/kg: Vz ([1]; 30 mg/kg (v.o.))
−: Mutagenicity ([2]; TA 97a +S9, 8 μg/mL) | Mutagenicity ([2]; TA 97a +S9, 40 μg/mL) | Mutagenicity ([2]; TA 97a +S9, 200 μg/mL) | Mutagenicity ([2]; TA 97a +S9, 1,000 μg/mL) | Mutagenicity ([2]; TA 97a +S9, 5,000 μg/mL) | Mutagenicity ([2]; TA 97a −S9, 8 μg/mL) | Mutagenicity ([2]; TA 97a −S9, 40 μg/mL) | Mutagenicity ([2]; TA 97a −S9, 200 μg/mL) | Mutagenicity ([2]; TA 97a −S9, 1,000 μg/mL) | Mutagenicity ([2]; TA 97a −S9, 5,000 μg/mL) | Mutagenicity ([2]; TA 98 +S9, 8 μg/mL) | Mutagenicity ([2]; TA 98 +S9, 40 μg/mL) | Mutagenicity ([2]; TA 98 +S9, 200 μg/mL) | Mutagenicity ([2]; TA 98 +S9, 1,000 μg/mL) | Mutagenicity ([2]; TA 98 +S9, 5,000 μg/mL) | Mutagenicity ([2]; TA 98 −S9, 8 μg/mL) | Mutagenicity ([2]; TA 98 −S9, 40 μg/mL) | Mutagenicity ([2]; TA 98 −S9, 200 μg/mL) | Mutagenicity ([2]; TA 98 −S9, 1,000 μg/mL) | Mutagenicity ([2]; TA 98 −S9, 5,000 μg/mL) | Mutagenicity ([2]; TA 100 +S9, 8 μg/mL) | Mutagenicity ([2]; TA 100 +S9, 40 μg/mL) | Mutagenicity ([2]; TA 100 +S9, 200 μg/mL) | Mutagenicity ([2]; TA 100 +S9, 1,000 μg/mL) | Mutagenicity ([2]; TA 100 +S9, 5,000 μg/mL) | Mutagenicity ([2]; TA 100 −S9, 8 μg/mL) | Mutagenicity ([2]; TA 100 −S9, 40 μg/mL) | Mutagenicity ([2]; TA 100 −S9, 200 μg/mL) | Mutagenicity ([2]; TA 100 −S9, 1,000 μg/mL) | Mutagenicity ([2]; TA 100 −S9, 5,000 μg/mL) | Mutagenicity ([2]; TA 102 +S9, 8 μg/mL) | Mutagenicity ([2]; TA 102 +S9, 40 μg/mL) | Mutagenicity ([2]; TA 102 +S9, 200 μg/mL) | Mutagenicity ([2]; TA 102 +S9, 1,000 μg/mL) | Mutagenicity ([2]; TA 102 +S9, 5,000 μg/mL) | Mutagenicity ([2]; TA 102 −S9, 8 μg/mL) | Mutagenicity ([2]; TA 102 −S9, 40 μg/mL) | Mutagenicity ([2]; TA 102 −S9, 200 μg/mL) | Mutagenicity ([2]; TA 102 −S9, 1,000 μg/mL) | Mutagenicity ([2]; TA 102 −S9, 5,000 μg/mL) | Mutagenicity ([2]; TA 1535 +S9, 8 μg/mL) | Mutagenicity ([2]; TA 1535 +S9, 40 μg/mL) | Mutagenicity ([2]; TA 1535 +S9, 200 μg/mL) | Mutagenicity ([2]; TA 1535 +S9, 1,000 μg/mL) | Mutagenicity ([2]; TA 1535 +S9, 5,000 μg/mL) | Mutagenicity ([2]; TA 1535 −S9, 8 μg/mL) | Mutagenicity ([2]; TA 1535 −S9, 40 μg/mL) | Mutagenicity ([2]; TA 1535 −S9, 200 μg/mL) | Mutagenicity ([2]; TA 1535 −S9, 1,000 μg/mL) | Mutagenicity ([2]; TA 1535 −S9, 5,000 μg/mL)
10.40 L/kg: Vz ([1]; 3 mg/kg (i.v.), 3 mg/kg)
100%: F ([1]; 3 mg/kg (i.v.))
545 ng/mL: Cmax ([1]; both sexes, Sprague Dawley, rat, plasma, po, 10 mg/kg, 10 mg/kg (v.o.), read-out: Cmax)
13.4 L/kg: Vd ([1]; both sexes, Sprague Dawley, rat, plasma, iv, 3 mg/kg, 3 mg/kg (i.v.), read-out: Vz)
1.45 h: T1/2 ([1]; 10 mg/kg (v.o.), 10 mg/kg)
